In patent publication US20120196791A1, “COMBINATION THERAPIES USING ANTIBACTERIAL AMINOGLYCOSIDE COMPOUNDS” (Achaogen, Inc., priority 2009, published 2012):

How the values were obtained:
Assay type in all cases: cell-based
P. aeruginosa strains [1] = test: MIC by macrodilution
Text: (§1) “MIC”, which stands for minimum inhibitory concentration, refers to that concentration, in μg/mL, of a compound of this invention that inhibits the growth and/or proliferation of a strain of bacteria by at least 80% compared to an untreated control as determined by visual inspection of a liquid culture.
Synergy time-kill was used to test the activity of Example 1, alone and in combination with cefepime, doripenem, imipenem and piperacillin/tazobactam, against 10 P. aeruginosa strains. The 10 clinical isolates included 5 cefepime resistant, 5 doripenem resistant, 8 imipenem resistant, and 9 piperacillin/tazobactam resistant strains. MICs were determined by macrodilution and time-kill was used to verify the activity of all five agents alone. MICs were predetermined by macrodilution in cation-adjusted Mueller-Hinton broth (BBL Microbiology Systems, Cockeysville, Md.) according to standard methodology. All strains were tested by time-kill methodology with each compound alone according to standard methods. Strains were examined by PCR for genes encoding aminoglycoside modifying enzymes (AMEs). Cultures were initiated by adding 35-μL aliquots of suspensions into 5 mL of broth. Viability counts (100-μL aliquots) in synergy tests were performed at 0, 3, 6, 12, and 24 h in a shaking water bath at 35° C. with final inocula of between 5×10^5 and 5×10^6 CFU/mL. Only plates with 30 to 300 colonies were counted.

S. aureus strains = test: MIC by macrodilution
Text: as §1
Synergy time-kill was used to test the activity of Example 1, alone and in combination with daptomycin (DAP), ceftobiprole (BPR), and linezolid (LZD), against 25 S. aureus strains. 25 clinical isolates included 2 hVISA, 2 VISA, and 5 VRSA, 10 hospital acquired and 6 community acquired MRSA strains. MICs were determined by macrodilution and time-kill was used to verify the activity of all four agents alone. MICs were predetermined by macrodilution in cation-adjusted Mueller-Hinton broth (BBL Microbiology Systems, Cockeysville, Md.) according to standard methodology. Daptomycin susceptibility testing was performed in Mueller-Hinton broth adjusted to 50 μg/mL of calcium according to standard methodology. All strains were tested by time-kill methodology with each compound alone according to standard methods. Cultures were initiated by adding 35-μL aliquots of suspensions into 5 mL of broth. Viability counts (100-μL aliquots) in synergy tests were performed at 0, 3, 6, 12, and 24 h in a shaking water bath at 35° C. with final inocula of between 5×10^5 and 5×10^6 CFU/mL. Only plates with 30 to 300 colonies were counted.

P. aeruginosa strains [2] = test: Synergy time-kill; conditions: with each drug tested, majority of isolates, 24 h

In the case of `CN[C@@H]1[C@@H](O)[C@@H](O[C@@H]2[C@@H](O)[C@H](O[C@H]3OC(CNCCO)=CC[C@H]3N)[C@@H](N)C[C@H]2NC(=O)[C@@H](O)CCN)OC[C@]1(C)O` [Example 1, 6′-(2-Hydroxy-ethyl)-1-(4-amino-2(S)-hydroxy-butyryl)-sisomicin], the “MICs for strains with genes encoding AMEs” value (P. aeruginosa strains [1]; 3 strains: 2 ant(2″)-Ia, 1 aac(6′)-Ib) is reported as “equivalent to strains lacking AMEs”, the MIC (P. aeruginosa strains [1]; Strain 1) is reported as 64 µg/mL and the MIC (P. aeruginosa strains [1]; Strain 2) is reported as 16 µg/mL. The MIC (P. aeruginosa strains [1]; Strain 3) was 16 µg/mL, the MIC (P. aeruginosa strains [1]; Strain 4) was 16 µg/mL and the MIC (P. aeruginosa strains [1]; Strain 5) was 32 µg/mL. For the same molecule, the MIC (P. aeruginosa strains [1]; Strain 6) was 8 µg/mL, the MIC (P. aeruginosa strains [1]; Strain 7) was 16 µg/mL and the MIC (P. aeruginosa strains [1]; Strain 8) was 16 µg/mL. For the same molecule, the MIC (P. aeruginosa strains [1]; Strain 9) was 16 µg/mL, the MIC (P. aeruginosa strains [1]; Strain 10) was 32 µg/mL and the “MICs of each agent alone” value (P. aeruginosa strains [1]; range over 10 P. aeruginosa strains) was 8 to 64 µg/mL. For the same molecule, the MIC (S. aureus strains; Strain 1, VRSA) was 1.0 µg/mL, the MIC (S. aureus strains; Strain 2, VRSA) was 0.5 µg/mL and the MIC (S. aureus strains; Strain 3, VRSA) was 1.0 µg/mL. The MIC (S. aureus strains; Strain 4, VRSA) was 2.0 µg/mL, the MIC (S. aureus strains; Strain 5, VRSA) was 1.0 µg/mL and the MIC (S. aureus strains; Strain 6, CA-MRSA, PVL+) was 4.0 µg/mL. For the same molecule, the MIC (S. aureus strains; Strain 7, CA-MRSA, PVL+) was 2.0 µg/mL, the MIC (S. aureus strains; Strain 8, CA-MRSA, PVL+) was 4.0 µg/mL and the MIC (S. aureus strains; Strain 9, hVISA) was 1.0 µg/mL. It also gave an MIC (S. aureus strains; Strain 10, hVISA) of 1.0 µg/mL, an MIC (S. aureus strains; Strain 11, VISA) of 4.0 µg/mL and an MIC (S. aureus strains; Strain 12, VISA) of 4.0 µg/mL. The MIC (S. aureus strains; Strain 13, ATCC33591 HA-MRSA) was 8.0 µg/mL, the MIC (S. aureus strains; Strain 14, HA-MRSA) was 2.0 µg/mL and the MIC (S. aureus strains; Strain 15, HA-MRSA) was 2.0 µg/mL. It also gave an MIC (S. aureus strains; Strain 16, HA-MRSA) of 2.0 µg/mL, an MIC (S. aureus strains; Strain 17, HA-MRSA) of 4.0 µg/mL and an MIC (S. aureus strains; Strain 18, HA-MRSA) of 2.0 µg/mL. For the same molecule, the MIC (S. aureus strains; Strain 19, HA-MRSA) was 2.0 µg/mL, the MIC (S. aureus strains; Strain 20, HA-MRSA) was 2.0 µg/mL and the MIC (S. aureus strains; Strain 21, HA-MRSA) was 4.0 µg/mL. For the same molecule, the MIC (S. aureus strains; Strain 22, HA-MRSA) was 4.0 µg/mL, the MIC (S. aureus strains; Strain 23, CA-MRSA PVL+) was 4.0 µg/mL and the MIC (S. aureus strains; Strain 24, CA-MRSA PVL+) was 4.0 µg/mL. For the same molecule, the MIC (S. aureus strains; Strain 25, CA-MRSA PVL neg) was 2.0 µg/mL, the “MICs of each agent alone” value (S. aureus strains; range over 25 S. aureus strains) was 0.5 to 8 µg/mL and the “Example 1 concentration yielding synergy” value (P. aeruginosa strains [2]) was “¼”.
